Tested on: MCF7 cells
Assay: Cell proliferation assay (ATPlite), MCF-7
Format: cell-based, human
Conditions: inhibition of cell proliferation, 72 h
Experimental: MCF-7 human breast adenocarcinoma cells and HL-60 acute promyelocytic leukaemia cells were obtained from ATCC (LGC Promochem). HG-1 multiple myeloma cells were obtained from Dr. D. Hose (DKFZ Heidelberg). The CellSensor® HRE-bla HCT116 cell line (colorectal carcinoma) was obtained from Invitrogen.
Cells were grown under humidified 95% air, 5% CO2 at 37° C. in Dulbecco's modified Eagle's medium (DMEM: MCF-7) or RPMI 1640 medium (RPMI: HL-60, HG-1) supplemented with 10% fetal bovine serum (FBS), 100 U/ml penicillin and 100 μg/ml streptomycin, 2 mM L-glutamine, and 2 ng/ml IL-6 (for the HG-1 cell line only). The HCT116 cell line was grown under the same atmospheric conditions in McCoy's 5A medium supplemented with 10% FBS and penicillin/streptomycin as above, in addition to blasticidin as a selection marker at a final concentration of 5 μg/ml.
Cell proliferation experiments were carried out in 96-well tissue culture plates with seeding of 2000 cells/well (MCF-7) or 1000 cells/well (HL-60, HG-1) in 100 μl of the relevant medium. Cells were subsequently incubated under the conditions mentioned for 24 h prior to addition of compounds.
For the determination of compound EC50 values, 10 μl compounds at 11× concentrations in 5.5% DMSO were added to the wells at various concentrations yielding a final constant percentage of 0.5% DMSO at the desired 1× compound concentration. As a positive control, cells were treated with 5.5% DMSO. The cells were then incubated for a further 72 h prior to the measurement.
To determine the degree of inhibition of cell proliferation, cells were treated with ATPlite solution according to the manufacturer's instructions (PerkinElmer, ATPlite 1-step Luminescence ATP Detection Assay System) and luciferase readout measured on an Envision HTS multilabel plate reader (PerkinElmer) in luminescence mode according to established protocols. Raw data were imported into an ActivityBase database (IDBS, ID Business Solutions) and EC50 values calculated using the IDBS program ActivityBase XE. Table 2A and 2B show the IC50 values obtained in the above-outlined cell proliferation assay for exemplary compounds of the invention.

Row | SMILES | EC50 (Homo sapiens) | EC50
1 | Cc1ccc(S(=O)(=O)Nc2cc(-c3ccc(C(F)(F)F)cn3)ccc2C)cc1 [Example 45, 4-Methyl-N-[2-methyl-5-(5-trifluoromethyl-pyridin-2-yl)-phenyl]-benzenesulfonamide] | 1000 to 10000 nM | –
2 | Cc1ccc(S(=O)(=O)Nc2cc(-c3ccc(F)c(C)n3)ccc2C)cc1 [Example 46, N-[5-(5-Fluoro-6-methyl-pyridin-2-yl)-2-methyl-phenyl]-4-methyl-benzenesulfonamide] | 500 to 1000 nM | –
3 | Cc1ccc(S(=O)(=O)Nc2cc(-c3c(C)noc3C)ccc2C)cc1 [Example 48, N-[5-(3,5-Dimethyl-isoxazol-4-yl)-2-methyl-phenyl]-4-methyl-benzenesulfonamide] | < 500 nM | –
4 | COc1ccc(S(=O)(=O)Nc2cc(-n3cccc3C)ccc2C)cc1 [Example 50, 4-Methoxy-N-[2-methyl-5-(2-methyl-pyrrol-1-yl)-phenyl]-benzenesulfonamide] | < 500 nM | –
5 | Cc1ccc(S(=O)(=O)Nc2cc(-c3cccc(C#N)n3)ccc2C)cc1 [Example 52, N-[5-(6-Cyano-pyridin-2-yl)-2-methyl-phenyl]-4-methyl-benzenesulfonamide] | 500 to 1000 nM | –
6 | Cc1ccc(S(=O)(=O)Nc2cc(-c3ccc(F)cn3)ccc2C)cc1 [Example 53, N-[5-(5-Fluoro-pyridin-2-yl)-2-methyl-phenyl]-4-methyl-benzenesulfonamide] | < 500 nM | –
7 | CC(=O)c1ccc(-c2ccc(C)c(NS(=O)(=O)c3ccc(C)cc3)c2)nc1 [Example 54, N-[5-(5-Acetyl-pyridin-2-yl)-2-methyl-phenyl]-4-methyl-benzenesulfonamide] | 1000 to 10000 nM | –
8 | Cc1ccc(S(=O)(=O)Nc2cc(-c3ccc([N+](=O)[O-])cn3)ccc2C)cc1 [Example 55, 4-Methyl-N-[2-methyl-5-(5-nitro-pyridin-2-yl)-phenyl]-benzenesulfonamide] | < 500 nM | –
9 | COc1ccc(S(=O)(=O)Nc2cc(-c3cccc(C#N)c3)ccc2C)cc1 [Example 57, N-(3′-Cyano-4-methyl-biphenyl-3-yl)-4-methoxy-benzenesulfonamide] | 500 to 1000 nM | –
10 | COc1ccc(S(=O)(=O)Nc2cc(-c3ccccc3C#N)ccc2C)cc1 [Example 58, N-(2′-Cyano-4-methyl-biphenyl-3-yl)-4-methoxy-benzenesulfonamide] | 500 to 1000 nM | –
11 | Cc1ccc(S(=O)(=O)Nc2cc(-c3sccc3C#N)ccc2C)cc1 [Example 59, N-[5-(3-Cyano-thiophen-2-yl)-2-methyl-phenyl]-4-methyl-benzenesulfonamide] | 500 to 1000 nM | –
12 | COc1ccc(S(=O)(=O)Nc2cc(-c3ccc(C#N)nc3)ccc2C)cc1 [Example 61, N-[5-(6-Cyano-pyridin-3-yl)-2-methyl-phenyl]-4-methoxy-benzenesulfonamide] | < 500 nM | –
13 | COc1ccc(S(=O)(=O)Nc2cc(-c3ccsc3C#N)ccc2C)cc1 [Example 62, N-[5-(2-Cyano-thiophen-3-yl)-2-methyl-phenyl]-4-methoxy-benzenesulfonamide] | < 500 nM | –
14 | Cc1ccc(S(=O)(=O)Nc2cc(-c3ncc(C#N)cn3)ccc2C)cc1 [Example 64, N-[5-(5-Cyano-pyrimidin-2-yl)-2-methyl-phenyl]-4-methyl-benzenesulfonamide] | 500 to 1000 nM | –
15 | COc1ccc(S(=O)(=O)Nc2cc(-c3ccc(C#N)c(C#N)c3)ccc2C)cc1 [Example 65, N-(3′,4′-Dicyano-4-methyl-biphenyl-3-yl)-4-methoxy-benzenesulfonamide] | < 500 nM | –
16 | Cc1ccc(S(=O)(=O)Nc2cc(-c3occc3C#N)ccc2C)cc1 [Example 70, N-[5-(3-Cyo-furan-2-yl)-2-methyl-phenyl]-4-methyl-benzenesulfonamide] | – | < 500 nM

More lines, main results first:

Row | EC50 (Homo sapiens) | SMILES | EC50
17 | 500 to 1000 nM | Cc1ccc(S(=O)(=O)Nc2cc(-c3cccc(N(C)C)n3)ccc2C)cc1 [Example 66, N-[5-(6-Dimethylamino-pyridin-2-yl)-2-methyl-phenyl]-4-methyl-benzenesulfonamide] | –
18 | 1000 to 10000 nM | Cc1ccc(S(=O)(=O)Nc2cc(-c3cc(C)cc(C)n3)ccc2C)cc1 [Example 67, N-[5-(4,6-Dimethyl-pyridin-2-yl)-2-methyl-phenyl]-4-methyl-benzenesulfonamide] | –
19 | < 500 nM | Cc1ccc(S(=O)(=O)Nc2cc(-c3cscc3C#N)ccc2C)cc1 [Example 69, N-[5-(4-Cyano-thiophen-3-yl)-2-methyl-phenyl]-4-methyl-benzenesulfonamide] | –
20 | 500 to 1000 nM | COc1ccc(S(=O)(=O)Nc2cc(-c3ccnc(C#N)c3)ccc2C)cc1 [Example 75, N-[5-(2-Cyano-pyridin-4-yl)-2-methyl-phenyl]-4-methoxy-benzenesulfonamide] | –
21 | < 500 nM | Cc1ccc(S(=O)(=O)Nc2cc(-c3ccc([N+](=O)[O-])o3)ccc2C)cc1 [Example 76, 4-Methyl-N-[2-methyl-5-(5-nitro-furan-2-yl)-phenyl]-benzenesulfonamide] | –
22 | < 500 nM | Cc1ccc(-c2ccc(C#N)s2)cc1NS(=O)(=O)c1ccc(Cl)cc1 [Example 77, 4-Chloro-N-[5-(5-cyano-thiophen-2-yl)-2-methyl-phenyl]-benzenesulfonamide] | –
23 | 500 to 1000 nM | Cc1ccc(-c2ccc(C#N)s2)cc1NS(=O)(=O)c1ccc(C(F)(F)F)cc1 [Example 78, N-[5-(5-Cyano-thiophen-2-yl)-2-methyl-phenyl]-4-trifluoromethyl-benzenesulfonamide] | –
24 | 1000 to 10000 nM | Cc1ccc(-c2ccc(C#N)s2)cc1NS(=O)(=O)c1ccc(OC(F)(F)F)cc1 [Example 79, N-[5-(5-Cyano-thiophen-2-yl)-2-methyl-phenyl]-4-trifluoromethoxy-benzenesulfonamide] | –
25 | < 500 nM | COc1ccc(-c2ccc(C)c(NS(=O)(=O)c3ccc(OC)cc3)c2)cc1 [Example 81, 4-Methoxy-N-(4′-methoxy-4-methyl-biphenyl-3-yl)-benzenesulfonamide] | –
26 | 1000 to 10000 nM | COc1ccc(S(=O)(=O)Nc2cc(-c3ccc(SC)cc3)ccc2C)cc1 [Example 82, 4-Methoxy-N-(4-methyl-4′-methylsulfanyl-biphenyl-3-yl)-benzenesulfonamide] | –
27 | 1000 to 10000 nM | COc1ccc(S(=O)(=O)Nc2cc(-c3ccc(OC(F)(F)F)cc3)ccc2C)cc1 [Example 83, 4-Methoxy-N-(4-methyl-4′-trifluoromethoxy-biphenyl-3-yl)-benzenesulfonamide] | –
28 | 500 to 1000 nM | C#Cc1ccc(-c2ccc(C)c(NS(=O)(=O)c3ccc(C)cc3)c2)cc1 [Example 84, N-(4′-Ethynyl-4-methyl-biphenyl-3-yl)-4-methyl-benzenesulfonamide] | –
29 | < 500 nM | COc1ccc(S(=O)(=O)Nc2cc(-c3ccc(C#N)cc3)ccc2C)cc1F [Example 85, N-(4′-Cyano-4-methyl-biphenyl-3-yl)-3-fluoro-4-methoxy-benzenesulfonamide] | –
30 | 1000 to 10000 nM | Cc1ccc(-c2ccc(C#N)cc2)cc1NS(=O)(=O)c1ccc([N+](=O)[O-])cc1 [Example 86, N-(4′-Cyano-4-methyl-biphenyl-3-yl)-4-nitro-benzenesulfonamide] | –
31 | < 500 nM | Cc1ccc(-c2ccc(C#N)cc2)cc1NS(=O)(=O)c1ccc(N)cc1 [Example 87, 4-Amino-N-(4′-cyano-4-methyl-biphenyl-3-yl)-benzenesulfonamide] | –
32 | < 500 nM | Cc1ccc(S(=O)(=O)Nc2cc(-c3ccc(C#N)cc3)ccc2C)cc1F [Example 88, N-(4′-Cyano-4-methyl-biphenyl-3-yl)-3-fluoro-4-methyl-benzenesulfonamide] | –
